Molecules are shown by their SMILES.

From US9834558B2, “Substituted bridged urea analogs as sirtuin modulators” (GLAXOSMITHKLINE LLC, priority 2013, dated 2017) come the findings set out here.

The target in the first experiment is T1, SIRT1 (Homo sapiens, UniProt Q96EB6).
T1 sequence (Q96EB6 1-747): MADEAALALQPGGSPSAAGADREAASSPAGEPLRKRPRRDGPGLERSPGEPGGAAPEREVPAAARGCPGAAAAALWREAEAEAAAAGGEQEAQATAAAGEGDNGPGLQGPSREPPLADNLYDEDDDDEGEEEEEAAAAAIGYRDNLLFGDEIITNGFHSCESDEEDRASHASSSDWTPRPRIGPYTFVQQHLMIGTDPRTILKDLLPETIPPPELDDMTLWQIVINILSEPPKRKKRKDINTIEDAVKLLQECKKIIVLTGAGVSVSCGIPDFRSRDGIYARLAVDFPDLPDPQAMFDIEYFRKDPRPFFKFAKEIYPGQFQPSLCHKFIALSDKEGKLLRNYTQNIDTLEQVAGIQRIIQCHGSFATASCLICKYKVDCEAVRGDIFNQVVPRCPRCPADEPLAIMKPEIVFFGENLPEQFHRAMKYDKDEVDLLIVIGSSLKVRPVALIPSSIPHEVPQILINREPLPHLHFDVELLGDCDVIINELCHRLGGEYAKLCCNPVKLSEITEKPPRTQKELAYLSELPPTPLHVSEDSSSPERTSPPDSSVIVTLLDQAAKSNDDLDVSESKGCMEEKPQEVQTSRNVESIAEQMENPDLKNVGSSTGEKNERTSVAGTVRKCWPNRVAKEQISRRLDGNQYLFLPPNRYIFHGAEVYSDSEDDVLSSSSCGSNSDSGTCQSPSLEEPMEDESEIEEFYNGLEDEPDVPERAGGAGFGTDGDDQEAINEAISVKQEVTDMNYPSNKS
The experiment is described as follows: Trp mass spectrometry assay of SIRT1 activation. The experiment is classed as biochemical. The settings on record: concentration giving 150% activation of SIRT1; Trp peptide substrate. The essentials:
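Activation read-out: mass-spec measurement of O-acetyl-ADP-ribose or deacetylated Trp peptide versus compound-free controls, giving EC1.5 and Percent Maximum Activation. Reactions ran 25 min at 25 °C, pH 7.5, with 120 μM βNAD+, 0.5 μM acetylated p53-derived peptide and 10 nM His-tagged SIRT1.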
Consider `O=C(NCc1ccc(NC(=O)N2c3nc(-c4cccc(C(F)(F)F)c4)ccc3N3CC[C@H]2C3)cc1)OC[C@@H]1[C@@H]2CCC#CCC[C@@H]21` [Example 796], for which the “Tryp AVG EC1.5 (μM)” value is recorded as “B (B (EC1.5 1-25 μM))”.
Regarding `C#CCOc1cccc(NC(=O)N2c3nc(-c4cccc(C5(C(F)(F)F)N=N5)c4)ccc3N3CC[C@H]2C3)c1` [Example 797], the “Tryp AVG EC1.5 (μM)” value is listed as “A (A (EC1.5<1 μM))”.
For `C#CCCCNc1nccc(NC(=O)N2c3nc(-c4ccc(C5(C(F)(F)F)N=N5)cc4)ccc3N3CC[C@H]2C3)n1` [Example 798], the “Tryp AVG EC1.5 (μM)” value is reported as “A (A (EC1.5<1 μM))”.
On to `[N-]=[N+]=NCC(=O)NCc1ccc(NC(=O)N2c3nc(-c4cccc(C(F)(F)F)c4)ccc3N3CC[C@H]2C3)cc1` [Example 799], for which the “Tryp AVG EC1.5 (μM)” value is “A (A (EC1.5<1 μM))”.
Turning to `C#CCOc1cc(-c2ccc3c(n2)N(C(=O)Nc2cccc(C4(C(F)(F)F)N=N4)c2)[C@H]2CCN3C2)cc(C(F)(F)F)c1` [Example 800], the “Tryp AVG EC1.5 (μM)” value was “C (C (EC1.5>25 μM))”.
On the same count and under the same terms, with `C#CCCCNc1nccc(NC(=O)N2c3nc(-c4cccc(C5(C(F)(F)F)N=N5)c4)ccc3N3CC[C@H]2C3)n1` [Example 801] the entry was “A (A (EC1.5<1 μM))”.
Turning to `C#CCOc1cccc(NC(=O)N2c3nc(-c4ccc(C5(C(F)(F)F)N=N5)cc4)ccc3N3CC[C@H]2C3)c1` [Example 802], the “Tryp AVG EC1.5 (μM)” value was “B (B (EC1.5 1-25 μM))”.
On the same count and under the same terms, with `C#Cc1ccc(NC(=O)N2c3nc(-c4cccc(C5(C(F)(F)F)N=N5)c4)ccc3N3CC[C@H]2C3)nc1` [Example 803] the entry was “A (A (EC1.5<1 μM))”; with `C#CCNc1nccc(NC(=O)N2c3nc(-c4cccc(C5(C(F)(F)F)N=N5)c4)ccc3N3CC[C@H]2C3)n1` [Example 804], “A (A (EC1.5<1 μM))”.
For `C#CCNc1nccc(NC(=O)N2c3nc(-c4ccc(C5(C(F)(F)F)N=N5)cc4)ccc3N3CC[C@H]2C3)n1` [Example 805], the “Tryp AVG EC1.5 (μM)” value is “B (B (EC1.5 1-25 μM))”.
Regarding `[N-]=[N+]=Nc1cc(N=[N+]=[N-])cc(-c2ccc3c(n2)N(C(=O)Nc2ccc(F)cn2)[C@H]2CCN3C2)c1` [Example 806], the “Tryp AVG EC1.5 (μM)” value is given as “A (A (EC1.5<1 μM))”.
For the compound `C#Cc1ccc(NC(=O)N2c3nc(-c4ccc(C5(C(F)(F)F)N=N5)cc4)ccc3N3CC[C@H]2C3)nc1` [Example 807], the “Tryp AVG EC1.5 (μM)” value is given as “C (C (EC1.5>25 μM))”.
Consider `[N-]=[N+]=NCc1cc(N=[N+]=[N-])cc(-c2ccc3c(n2)N(C(=O)Nc2cnccn2)[C@H]2CCN3C2)c1` [Example 808], for which the “Tryp AVG EC1.5 (μM)” value is “A (A (EC1.5<1 μM))”.
`C#CNc1nccc(NC(=O)N2c3nc(-c4cccc(C5(C(F)(F)F)N=N5)c4)ccc3N3CC[C@H]2C3)n1` [Example 809]: the “Tryp AVG EC1.5 (μM)” value was “B (B (EC1.5 1-25 μM))”.
In the case of `O=C(Nc1ccncc1)N1c2nc(-c3cccc(C(F)(F)F)c3)ccc2N2CC[C@H]1C2` [Example 817], the “Tryp AVG EC1.5 (μM)” value is given as “A (A (EC1.5<1 μM))”.
The same measure, in the same setting: with `O=C(Nc1ccnc(OC[C@H](O)CO)n1)N1c2nc(-c3cccc(C(F)(F)F)c3)ccc2N2CC[C@H]1C2` [Example 818] the entry was “A (A (EC1.5<1 μM))”; with `O=C(Nc1cccc(OC[C@H](O)CO)n1)N1c2nc(-c3cccc(C(F)(F)F)c3)ccc2N2CC[C@H]1C2` [Example 819], “A (A (EC1.5<1 μM))”.
Regarding `O=C(Nc1ccccn1)N1c2nc(-c3cccc(C(F)(F)F)c3)ccc2N2CCC[C@H]1C2` [Example 820], the “Tryp AVG EC1.5 (μM)” value was “A (A (EC1.5<1 μM))”.
Regarding `O=C(Nc1ccncc1)N1c2nc(-c3cccc(C(F)(F)F)c3)ccc2N2CCC[C@H]1C2` [Example 821], the “Tryp AVG EC1.5 (μM)” value is listed as “A (A (EC1.5<1 μM))”.
On the same count and under the same terms, then `O=C(Nc1cccnn1)N1c2nc(-c3cccc(Cl)c3)ccc2N2CC[C@H]1C2` [Example 822], with “A (A (EC1.5<1 μM))”.

Still in this experiment, the particulars now being: percent maximum fold activation of SIRT1; Trp peptide substrate; read-out: Tryp % Fold Act.
On to `C#CCCCNc1nccc(NC(=O)N2c3nc(-c4ccc(C5(C(F)(F)F)N=N5)cc4)ccc3N3CC[C@H]2C3)n1` [Example 798], for which the Emax is above 150%.
Consider `[N-]=[N+]=Nc1cc(N=[N+]=[N-])cc(-c2ccc3c(n2)N(C(=O)Nc2ccc(F)cn2)[C@H]2CCN3C2)c1` [Example 806], for which the Emax was above 150%.
On to `C#CNc1nccc(NC(=O)N2c3nc(-c4cccc(C5(C(F)(F)F)N=N5)c4)ccc3N3CC[C@H]2C3)n1` [Example 809], for which the Emax was above 150%.
Take `O=C(Nc1ccnc(OC[C@H](O)CO)n1)N1c2nc(-c3cccc(C(F)(F)F)c3)ccc2N2CC[C@H]1C2` [Example 818]: the Emax is above 150%.
